This is an account of results in patent publication US5624668A (Luitpold Pharmaceuticals, Inc., priority 1995, dated 1997).

For assay [1], the system named is hemoglobin or ferritin-related stores. The settings on record: cited from earlier work.
Assay [2] shares this test system. The settings on record: given in early stage of iron deficiency (ferritin below 100 ug/L or transferrin saturation below 20%).

For the substance iron dextran, the “quantitative iron utilization for hemoglobin or ferritin-related stores” value in assay [1] (dialysis-associated anemia, within the first 90 days after infusion, previous retrospective analysis) was “highly variable and incomplete within the first 90 days”. In addition, in assay [1] (iron deficiency anemia and normal renal function, early after intravenous infusion), the “recovery of iron for hemoglobin synthesis or iron stores” value is given as “incomplete”. Moreover, in assay [2], the hemoglobin response result was “without a concomitant increase in hemoglobin” and the serum ferritin response entry is “rise in serum ferritin”.
